# System: DNA repair protein genes
# Assay: DNA chip mRNA expression in yeast, DNA repair protein genes (Table 3)
# Type: cell-based, Saccharomyces cerevisiae S288C
# Conditions: incubated two hours, concentrations as in the 1st table
# Summary of the method: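 First, S288C yeast grown in YPD at 25° C. are dosed in log phase with one toxicant (growth-inhibiting, not lethal) for 2 h. Next, total RNA is extracted and poly(A) mRNA isolated and reverse-transcribed with Cy3/Cy5-dUTP. Finally, whole-genome chip fluorescence is read relative to unexposed cells.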
compound,measurement,setting,value
"S=C([S-])NCCNC(=S)[S-].[Zn+2] [(11), zinc N,N′-ethylenebis(dithiocarbamate)]",The level of expressed mRNA in the presence of chemical substance/The level of expressed mRNA in the absence of chemical substance,yeast gene YAL015C,1.4
same,The level of expressed mRNA in the presence of chemical substance/The level of expressed mRNA in the absence of chemical substance,yeast gene YAR007C,0.9
same,The level of expressed mRNA in the presence of chemical substance/The level of expressed mRNA in the absence of chemical substance,yeast gene YBL019W,1.0
same,The level of expressed mRNA in the presence of chemical substance/The level of expressed mRNA in the absence of chemical substance,yeast gene YBR073W,0.5
same,The level of expressed mRNA in the presence of chemical substance/The level of expressed mRNA in the absence of chemical substance,yeast gene YBR272C,1.1
same,The level of expressed mRNA in the presence of chemical substance/The level of expressed mRNA in the absence of chemical substance,yeast gene YCR014C,0.8
same,The level of expressed mRNA in the presence of chemical substance/The level of expressed mRNA in the absence of chemical substance,yeast gene YDL017W,0.8
same,The level of expressed mRNA in the presence of chemical substance/The level of expressed mRNA in the absence of chemical substance,yeast gene YDL059C,2.0
same,The level of expressed mRNA in the presence of chemical substance/The level of expressed mRNA in the absence of chemical substance,yeast gene YDL200C,1.2
same,The level of expressed mRNA in the presence of chemical substance/The level of expressed mRNA in the absence of chemical substance,yeast gene YDR054C,1.9
same,The level of expressed mRNA in the presence of chemical substance/The level of expressed mRNA in the absence of chemical substance,yeast gene YDR369C,1.1
same,The level of expressed mRNA in the presence of chemical substance/The level of expressed mRNA in the absence of chemical substance,yeast gene YEL019C,1.2
same,The level of expressed mRNA in the presence of chemical substance/The level of expressed mRNA in the absence of chemical substance,yeast gene YEL037C,1.0
same,The level of expressed mRNA in the presence of chemical substance/The level of expressed mRNA in the absence of chemical substance,yeast gene YER162C,0.5
same,The level of expressed mRNA in the presence of chemical substance/The level of expressed mRNA in the absence of chemical substance,yeast gene YFL014W,5.0
same,The level of expressed mRNA in the presence of chemical substance/The level of expressed mRNA in the absence of chemical substance,yeast gene YGL058W,0.8
same,The level of expressed mRNA in the presence of chemical substance/The level of expressed mRNA in the absence of chemical substance,yeast gene YGL091C,2.1
same,The level of expressed mRNA in the presence of chemical substance/The level of expressed mRNA in the absence of chemical substance,yeast gene YGL127C,1.0
same,The level of expressed mRNA in the presence of chemical substance/The level of expressed mRNA in the absence of chemical substance,yeast gene YGL163C,0.4
same,The level of expressed mRNA in the presence of chemical substance/The level of expressed mRNA in the absence of chemical substance,yeast gene YGL249W,0.6
same,The level of expressed mRNA in the presence of chemical substance/The level of expressed mRNA in the absence of chemical substance,yeast gene YGR180C,1.0
same,The level of expressed mRNA in the presence of chemical substance/The level of expressed mRNA in the absence of chemical substance,yeast gene YGR231C,1.6
same,The level of expressed mRNA in the presence of chemical substance/The level of expressed mRNA in the absence of chemical substance,yeast gene YGR258C,0.3
same,The level of expressed mRNA in the presence of chemical substance/The level of expressed mRNA in the absence of chemical substance,yeast gene YHR164C,0.6
same,The level of expressed mRNA in the presence of chemical substance/The level of expressed mRNA in the absence of chemical substance,yeast gene YIL036W,1.2
same,The level of expressed mRNA in the presence of chemical substance/The level of expressed mRNA in the absence of chemical substance,yeast gene YIL072W,1.8
same,The level of expressed mRNA in the presence of chemical substance/The level of expressed mRNA in the absence of chemical substance,yeast gene YIL143C,1.5
same,The level of expressed mRNA in the presence of chemical substance/The level of expressed mRNA in the absence of chemical substance,yeast gene YIL153W,1.0
same,The level of expressed mRNA in the presence of chemical substance/The level of expressed mRNA in the absence of chemical substance,yeast gene YIR002C,0.8
same,The level of expressed mRNA in the presence of chemical substance/The level of expressed mRNA in the absence of chemical substance,yeast gene YJL026W,1.3
same,The level of expressed mRNA in the presence of chemical substance/The level of expressed mRNA in the absence of chemical substance,yeast gene YJR046W,0.6
same,The level of expressed mRNA in the presence of chemical substance/The level of expressed mRNA in the absence of chemical substance,yeast gene YJR052W,1.1
same,The level of expressed mRNA in the presence of chemical substance/The level of expressed mRNA in the absence of chemical substance,yeast gene YKL145W,1.8
same,The level of expressed mRNA in the presence of chemical substance/The level of expressed mRNA in the absence of chemical substance,yeast gene YLR103C,0.9
same,The level of expressed mRNA in the presence of chemical substance/The level of expressed mRNA in the absence of chemical substance,yeast gene YLR233C,0.8
same,The level of expressed mRNA in the presence of chemical substance/The level of expressed mRNA in the absence of chemical substance,yeast gene YLR288C,1.4
same,The level of expressed mRNA in the presence of chemical substance/The level of expressed mRNA in the absence of chemical substance,yeast gene YML032C,1.0
same,The level of expressed mRNA in the presence of chemical substance/The level of expressed mRNA in the absence of chemical substance,yeast gene YML058W,3.3
same,The level of expressed mRNA in the presence of chemical substance/The level of expressed mRNA in the absence of chemical substance,yeast gene YMR035W,1.5
same,The level of expressed mRNA in the presence of chemical substance/The level of expressed mRNA in the absence of chemical substance,yeast gene YMR072W,1.9
same,The level of expressed mRNA in the presence of chemical substance/The level of expressed mRNA in the absence of chemical substance,yeast gene YMR096W,1.5
same,The level of expressed mRNA in the presence of chemical substance/The level of expressed mRNA in the absence of chemical substance,yeast gene YMR284W,1.1
same,The level of expressed mRNA in the presence of chemical substance/The level of expressed mRNA in the absence of chemical substance,yeast gene YNL213C,1.5
same,The level of expressed mRNA in the presence of chemical substance/The level of expressed mRNA in the absence of chemical substance,yeast gene YNL250W,1.0
same,The level of expressed mRNA in the presence of chemical substance/The level of expressed mRNA in the absence of chemical substance,yeast gene YNL261W,0.8
same,The level of expressed mRNA in the presence of chemical substance/The level of expressed mRNA in the absence of chemical substance,yeast gene YNL312W,1.4
same,The level of expressed mRNA in the presence of chemical substance/The level of expressed mRNA in the absence of chemical substance,yeast gene YOL043C,1.2
same,The level of expressed mRNA in the presence of chemical substance/The level of expressed mRNA in the absence of chemical substance,yeast gene YOR005C,1.2
same,The level of expressed mRNA in the presence of chemical substance/The level of expressed mRNA in the absence of chemical substance,yeast gene YOR386W,1.4
same,The level of expressed mRNA in the presence of chemical substance/The level of expressed mRNA in the absence of chemical substance,yeast gene YPL022W,0.8
same,The level of expressed mRNA in the presence of chemical substance/The level of expressed mRNA in the absence of chemical substance,yeast gene YPL164C,1.1
same,The level of expressed mRNA in the presence of chemical substance/The level of expressed mRNA in the absence of chemical substance,yeast gene YPL194W,0.9
same,The level of expressed mRNA in the presence of chemical substance/The level of expressed mRNA in the absence of chemical substance,yeast gene YPR025C,0.9
